Data on four molecules can be found in patent publication US4680382A, “Analogues of actinomycin D” (priority 1986, dated 1987).

The IC50 is the midpoint of a concentration-inhibition curve.

Data set [1] can be described thus: Maximum tolerated dose (LD10) in tumor-free BDF1 male mice. Format: in vivo. As to conditions: lethal dose for 10% normal BDF1 male mice, 21 days (LD10); ip days 1, 5 and 9. As for the experimental part:
(§1) These analogues were also tested in tumor-free BDF1 male mice for determination of their MTD values (Table VIII). The animals (18-22 g) were given a broad range of doses of drugs in 5% dimethyl sulfoxide-saline on days 1, 5 and 9. Drugs were administered ip and the maximum tolerated doses of agents which caused death in only 10% of the tested animals in 21 days (i.e., LD10) were recorded as MTD. […] However, the MED values of 7-hydroxy-AMD and its precursor AMD-OZL 10a are high and are seven to tenfold of the MED values of 4a and 8a. On the basis of these MED values, the therapeutic indices of 8a and 4a are 70 and 96. The therapeutic index of 2a is 13, of 10a 10, and of AMD only 4.
^c MTD (maximum tolerated dose) is the lethal dose
(milligram/kilogram) for 10% normal BDF1 male mice (18-22 g); animal
calculated from a plot of logdose vs. percent mortality.

The test system of another data set is P388 cells. Put plainly: Inhibition of RNA synthesis (2-[14C]uridine incorporation) in P388 cells. As to conditions: for IC50: 50% reduction in 1 hr of 2-[14C]uridine incorporation, read-out: IC50 RNA synth; for IC50 DNA/IC50 RNA: ratio. Format: cell-based, murine. As for the experimental part:
Experiments for inhibition of nucleic acid synthesis in tumor cells in vitro were carried out with P388 tumor cells, details of which were reported by Sengupta et al, J. Med. Chem., 18, 1175 (1975). […] AMD-OZLs inhibit either process with equal activity and with the potency of its metabolite 7-hydroxy-AMD.
^b IC50 (RNA) = concentration of inhibitor in μM required to
cause 50% reduction (in 1 hr) in 2[^14 C]uridine incorporation into
acid precipitable material with use of P388 cells.

A further data set has as its system P388 Leukemia. Put plainly: Minimum effective dose and therapeutic index vs. P388 leukemia. Format: in vivo. As to conditions: dose giving 45% increase in life span in P388 tumor bearing mice; ip days 1, 5 and 9. As for the experimental part: as §1
^a Drugs administered ip once on days 1, 5 and 9 starting 1 day after
tumor implantation. Determinations were made from analysis of plotted
^b MED (minimum effective dose) is the dose (milligram/kilogram)
providing an increase in life span of 45% over control in P388 tumor

In data set [2] the test system is P388 lymphocytic leukemia. Put plainly: In vivo antitumor activity against P388 leukemia. As to conditions: for surv (surviving mice/total mice at 60 days) / % ILS / MST (range): P388, at optimal dose; for % ILS: 100(T/C - 1); for MST (range): control 11.0 (9-12); for optimal dose: P388, ip, days 1, 5 and 9, optimal nontoxic dose. More on the design: species or system BDF1 mice. The method, then: The analogues were tested for their antitumor activities in P388 lymphocytic leukemia in male BDF1 mice. The tumor was implanted intraperitoneally (ip) with 10^6 cells. The drugs were also administered ip once daily on days 1, 5 and 9, beginning 1 day after tumor transplantation. Analogues were tested over a range of doses, but only the optimal nontoxic doses are listed.
^a 10^6 P388 cells implanted ip on day 0 into groups of eight
BDF1 male mice. Drugs administered ip. MST (range), median survival
time in days (range of individual animal deaths); % ILS, percent increase
in life span, calculated 100(T/C - 1), where T and C are median survival
times of treated and control animals; surv, number of surviving mice/tota

A further data set has as its system DNA. Put plainly: Viscometry of DNA (test for intercalative binding). As to conditions: increasing [ligand]/DNA base pair ratio. The method, then: The equilibrium binding constants (Kapp and Bapp) of the "reverse" methyl 7a and the "reverse" phenyl 8a were determined from the Scatchard plots of binding isotherms; the Scatchard plots are produced according to the previously described methods using calf-thymus DNA [Sengupta et al, Biochem. Biophys. Acta 521, 89 (1978)]. The Kapp values are 2.5×10^6 and 2.3×10^6 M^-1, respectively; corresponding Bapp values are 0.038 and 0.036. […] But, these "reverse" analogues associate with DNA less strongly; their frequency of binding is also lower compared to that of AMD. However, the "reverse" analogues fail to cause any measurable change in the ratio of the intrinsic viscosity (γ) of DNA with the increasing ratios of [ligand]/DNA base pair (r), even when low molecular weight DNAs (0.5×10^5 to 1.0×10^5) were employed.

The test system of the next data set is liver microsomes. The data set is described as follows: EPR detection of free-radical intermediates with liver microsomes and NADPH (anaerobic). Format: biochemical. As to conditions: NADPH, potassium phosphate buffer. The method, then: No free-radical intermediates were detected in the absence of enzyme or substrates.
Melting points are determined on a Thomas-Hoover melting point apparatus at a heating rate of 2° C./min. Thin-layer chromatography was performed on silica gel plates (Brinkmann Instrument Inc.). Solvent systems were (A) EtOAc-acetone (4:1), (B) CHCl3 -MeOH (9:1) and (C) Cifferri, the organic phase of the mixture EtOAc-MeOH-H2 O (20:1:20). High-performance liquid chromatography was carried out on a Varian Model 5020 gradient liquid chromatograph equipped with a CD-111L chromatography data system and fitted with a Varian reversed-phase C18 column with the following solvent systems: I, CH3 CN-5 mM NH4 OAc buffer, pH 6.4 (68:32 isocratic), flow rate 1.5 mL/min; II, 65-95% water-methanol gradient for 70 min, 1 mL/min; III, 10-90% H2 O-MeOH gradient for 120 min, 1 mL/min, with UV-visible variable- and fixed-wavelength dual detectors at 254, 440, 470 and 520 nm. IR spectra were obtained on a Perkin-Elmer Model 237 Infra Cord with KBr micropellets or in chloroform solutions. UV-visible spectra were obtained on a Gilford 250 spectrophorometer, which, with the addition of a base-line reference compensator (Analog Multiplexer 5053) and thermoprogrammer, auto four cell programmer and thermoelectric cell holder 2577, were used to obtain thermal denaturation curves. Specific rotation values were determined in chloroform solutions with a Cary 60 spectropolarimeter. NMR spectra were obtained in a JEOL FQ-90 MHz spectrometer equipped with Fourier transform. EPR spectra analyses were recorded in a Varian E-9 EPR spectrometer. All elemental analyses were within ±0.4%.
For orientation: Liver microsomes are vesicles of endoplasmic reticulum, rich in cytochrome P450 enzymes.

The subject of another data set is B16 melanoma. Put plainly: In vivo antitumor activity against B16 melanoma. More on the design: species or system BDF1 mice. As to conditions: for % ILS / surv (survivors on day 65/total injected) / MST (range): at optimal dose; for MST (range): control 29 (20-48); for optimal dose: ip, days 1, 5, 9. As for the experimental part:
AMD-OZL analogues 9a and 10a were about as active as AMD and 7-hydroxy-AMD. The potencies of these analogues are reduced in comparison to that of AMD; their optimal doses were higher than that of AMD.
^a 0.2 mL of 1:5 (weight/volume) brei of B16 melanoma implanted
ip on day 0 in groups of nine BDF1 mice. Drugs administered ip.
^b MST (range) median survival time in days (range of individual
^c % ILS (surv), percent increase in lifespan (survivors on day

A further data set has as its system P388/S. Put plainly: In vivo activity against P388/S (adriamycin sensitive) leukemia, Table VII. More on the design: species or system BDF1 mice. As to conditions: for P388/S % ILS / P388/S tumor-free survivors/total on day 60: at optimal dose; for P388/S optimal dose: ip, days 1, 5 and 9. The method, then:
^a Male BDF1 mice inoculated ip: 10^6 cells inoculum, day 0.
Drugs administered in 10% dimethyl sulfoxidesaline on days 1, 5 and 9. %
ILS = percent increase in life span. Fractions in parentheses = tumorfree
survivors/total on day 60. P388/S (adriamycin sensitive) and P388/ADR
(adriamycin resistant) tumors were evaluated in the same experiment with […]

Where “and” joins values, the source holds several entries; their conditions need not be identical. Identical values can stand only once. *1 amine or outer side, *2 acyl side, *3 side chain or, on linkers, in order; H or OH if unused. Where a SMILES comes first, the peptide text is derived from it. Bridges are numbered along the chain shown (N, C = ends). Roman numbers before positions name the chains, in order. [ ]: non-standard residue; d: D form. Actinocin(9to1) = Cc1c2oc3c(C)ccc(C(=O)[*:1])c3nc-2c(C(=O)[*:2])c(N)c1=O; NMeV = CN[C@H](C(=O)O)C(C)C; Sar = CNCC(=O)O

For the molecule `Cc1c2oc3c(C)c(O)c(N)c(C(=O)NC4C(=O)NC(C(C)C)C(=O)N5CCCC5C(=O)N(C)CC(=O)N(C)C(C(C)C)C(=O)OC4C)c3nc-2c(C(=O)NC2C(=O)NC(C(C)C)C(=O)N3CCCC3C(=O)N(C)CC(=O)N(C)C(C(C)C)C(=O)OC2C)c(N)c1=O` (centres unmarked) [4a, 7-Hydroxy-8-amino-actinomycin D], the “MTD (maximum tolerated dose)” value in data set [1] is 2.40 milligram/kilogram. In addition, in the data set with P388 cells, the IC50 is 1.15 µM and the “IC50 DNA/IC50 RNA” value came to 0.97. Besides, in the data set with P388 Leukemia, the “MED (minimum effective dose)” value is recorded as 0.025 milligram/kilogram. Besides, in data set [2], the “surv (surviving mice/total mice at 60 days)” value is on record as 4/8, the “% ILS” value amounted to 382%, the “MST (range)” value is 52.0 (48-55) days and the optimal dose is recorded as 600.0 μg/kg per inj. The “change in intrinsic viscosity of DNA / intercalative binding by viscometry” value with DNA was “lack of intercalative binding”. In the data set on liver microsomes, the “free-radical intermediate detected by EPR” value is reported as “Free-radical intermediates were also detected”. In addition, in the data set with B16 melanoma, the “% ILS” value came to 96%, the “surv (survivors on day 65/total injected)” value is 4/9, the “MST (range)” value was 57 (33-61) days and the optimal dose is 300 μg/kg per inj. For the same molecule, in the data set on P388/S, the “P388/S % ILS” value was 382%, the “P388/S tumor-free survivors/total on day 60” value is 4/8 and the P388/S optimal dose is on record as 0.6 mg/kg.

As for `Cc1nc2c(C(=O)NC3C(=O)NC(C(C)C)C(=O)N4CCCC4C(=O)N(C)CC(=O)N(C)C(C(C)C)C(=O)OC3C)c3nc4c(C(=O)NC5C(=O)NC(C(C)C)C(=O)N6CCCC6C(=O)N(C)CC(=O)N(C)C(C(C)C)C(=O)OC5C)c(N)c(=O)c(C)c-4oc3c(C)c2o1` [7a, 7-Amino-2,9,11-trimethyl-8H-8-oxooxazolo [4,5-b]phenoxazine 4,6-bis[carbonyl-L-threonyl-D-valyl-L-prolylsarcosyl-L-N-methylvaline-(threonine hydroxyl)] lactone], in the data set on P388 cells, the IC50 was 0.09 µM and the “IC50 DNA/IC50 RNA” value is on record as 11.22. In addition, in data set [2], the “surv (surviving mice/total mice at 60 days)” value is given as 3/8, the “% ILS” value was 277%, the “MST (range)” value is recorded as 42.5 (39-43) days and the optimal dose was determined as 450.0 μg/kg per inj. Also, the “free-radical intermediate detected by EPR” value with liver microsomes is recorded as “Free-radical intermediates were also detected”. Further, in the data set on B16 melanoma, the “% ILS” value is 90%, the “surv (survivors on day 65/total injected)” value is given as 3/9, the “MST (range)” value is listed as 55 (33-57) days and the optimal dose is on record as 300 μg/kg per inj.

With `Cc1nc2c(C(=O)NC3C(=O)NC(C(C)C)C(=O)N4CCCC4C(=O)N(C)CC(=O)N(C)C(C(C)C)C(=O)OC3C)c3nc4c(C(=O)NC5C(=O)NC(C(C)C)C(=O)N6CCCC6C(=O)N(C)CC(=O)N(C)C(C(C)C)C(=O)OC5C)cc(=O)c(C)c-4oc3c(C)c2o1` (centres unmarked) [9a], in data set [2], the “surv (surviving mice/total mice at 60 days)” value is 0/0, the “% ILS” value is 164%, the “MST (range)” value is reported as 29.0 (19-58) days and the optimal dose stood at 1200.0 μg/kg per inj. In the data set with B16 melanoma, the “% ILS” value is 55%, the “surv (survivors on day 65/total injected)” value is reported as 1/9, the “MST (range)” value is 45 (32-55) days and the optimal dose came out at 750 μg/kg per inj.

Turning to `Cc1c2oc3c(C)ccc(C(=O)N[C@@H]4C(=O)N[C@H](C(C)C)C(=O)N5CCC[C@H]5C(=O)N(C)CC(=O)N(C)[C@@H](C(C)C)C(=O)O[C@@H]4C)c3nc-2c(C(=O)N[C@@H]2C(=O)N[C@H](C(C)C)C(=O)N3CCC[C@H]3C(=O)N(C)CC(=O)N(C)[C@@H](C(C)C)C(=O)O[C@@H]2C)c(N)c1=O` [AMD, Actinomycin D] (I: T[dV]P[Sar][NMeV] / II: T[dV]P[Sar][NMeV]; ester I:1-I:C, II:1-II:C; linker I:N-II:N via Actinocin(9to1)), the “MTD (maximum tolerated dose)” value in data set [1] is listed as 0.25 milligram/kilogram. In the data set with P388 cells, the IC50 amounted to 0.05 µM; the “IC50 DNA/IC50 RNA” value was 22 and 22.40. Moreover, the “MED (minimum effective dose)” value in the data set on P388 Leukemia is 0.0625 milligram/kilogram. In data set [2], the “surv (surviving mice/total mice at 60 days)” value is 1/8, the “% ILS” value stood at 136%, the “MST (range)” value is listed as 26.0 (16-37) days and the optimal dose is 300.0 μg/kg per inj. Further, in the data set with DNA, the “change in intrinsic viscosity of DNA / intercalative binding by viscometry” value is listed as “steady rise in the value of γ”. Besides, in the data set with liver microsomes, the “free-radical intermediate detected by EPR” value is recorded as “free-radical intermediate with broad resonance peaks was detected”. For the same molecule, in the data set with B16 melanoma, the “% ILS” value worked out at 48%, the “surv (survivors on day 65/total injected)” value was 2/9, the “MST (range)” value is recorded as 43 (36-54) days and the optimal dose is given as 250 μg/kg per inj. Besides, in the data set on P388/S, the “P388/S % ILS” value amounted to 132%, the “P388/S tumor-free survivors/total on day 60” value was 1/8 and the P388/S optimal dose is given as 0.25 mg/kg.
